Assay results taken from patent publication US10668040B2, “Treatment of urea cycle disorders in neonates and infants” (Horizon Therapeutics, LLC, priority 2017, dated 2020).

Tested on: UCD patients
Experiment: Example 3: TEAEs, serious and non-serious adverse events
Type: in vivo
Text: Sixteen newborn infants aged 0 to 27 days, and 10 infants and toddlers aged 28 days to 23 months received RAVICTI Oral Liquid administered just prior to breastfeeding or intake of formula or food. The recommended dosing regimen was 3-6 times per day depending on feeding schedule.
Number of Subjects with Treatment-Emergent Adverse Events (TEAEs), Serious TEAEs, Deaths, and Discontinuations Due to TEAEs
An adverse event (AE) is any untoward medical occurrence, whether or not the event is considered related to the study drug. A serious AE is any AE that: results in death; is life threatening; requires hospitalization or prolongation of existing hospitalization; results in disability/incapacity; is a congenital anomaly/birth defect; is an important medical event. TEAEs are defined as AEs with an onset date on or after the first dose of study medication until study discontinuation. The Investigator assessed the causal relationship of each TEAE to the study drug as not related, possibly related, or probably related. From the first dose of study treatment through 30 days after the final dose (mean [SD] duration of treatment was 9.13 [6.838] months).

[1] = Non-serious adverse events, Age 0 to <2 Months
[2] = Non-serious adverse events, Age 2 Months to <2 Years
[3] = aged 0 to 2 months, 16 analyzed
[4] = aged 2 months and up to 2 years, 10 analyzed

## O=C(CCCc1ccccc1)OCC(COC(=O)CCCc1ccccc1)OC(=O)CCCc1ccccc1 [RAVICTI, benzenebutanoic acid, 1′,1″-(1,2,3-propanetriyl) ester]
[1]
  Irritability, Occurrences (all): 1
  Lethargy, Occurrences (all): 1
  Leukocytosis, Occurrences (all): 1
  Lower respiratory tract infection, Occurrences (all): 1
  Lymphocytosis, Occurrences (all): 1
  Medical device site haemorrhage, Occurrences (all): 1
  Metabolic acidosis, Occurrences (all): 2
  Microcytic anaemia, Occurrences (all): 1
  Musculoskeletal and connective tissue Disorders (Torticollis), Occurrences (all): 1
  Nail ridging, Occurrences (all): 0
  Nasal congestion, Occurrences (all): 2
  Nasopharyngitis, Occurrences (all): 7
  Nephrolithiasis, Occurrences (all): 1
  Neutropenia, Occurrences (all): 1
  Ocular hyperaemia, Occurrences (all): 1
  Oral candidiasis, Occurrences (all): 2
  Oropharyngeal pain, Occurrences (all): 2
  Otitis media acute, Occurrences (all): 1
  Otitis media, Occurrences (all): 1
  Pharyngitis, Occurrences (all): 0
  Plagiocephaly, Occurrences (all): 2
  Platelet count increased, Occurrences (all): 1
  Pneumonia, Occurrences (all): 0
  Pneumothorax, Occurrences (all): 1
  Post-tussive vomiting, Occurrences (all): 1
  Protein deficiency, Occurrences (all): 2
  Pyrexia, Occurrences (all): 3
  Rash, Occurrences (all): 6
  Red man syndrome, Occurrences (all): 1
  Respiratory disorder, Occurrences (all): 0
  Respiratory syncytial virus infection, Occurrences (all): 1
  Rhinorrhoea, Occurrences (all): 0
  Rhinovirus infection, Occurrences (all): 1
  Seborrhoeic dermatitis, Occurrences (all): 2
  Sinusitis, Occurrences (all): 1
  Stoma site reaction, Occurrences (all): 1
  Tachypnoea, Occurrences (all): 1
  Teething, Occurrences (all): 3
  Thrombocytopenia, Occurrences (all): 2
  Thrombocytosis, Occurrences (all): 2
  Tibia fracture, Occurrences (all): 0
  Transaminases increased, Occurrences (all): 1
  Tremor, Occurrences (all): 1
  Upper respiratory tract infection, Occurrences (all): 7
  Urinary tract infection, Occurrences (all): 2
  Use of accessory respiratory muscles, Occurrences (all): 1
  Vascular disorders (Venous thrombosis limb), Occurrences (all): 0
  Vesicoureteric reflux, Occurrences (all): 0
  Viral infection, Occurrences (all): 1
  Vomiting, Occurrences (all): 12
  Weight decreased, Occurrences (all): 1
[2]
  Agitation, Occurrences (all): 0
  Alanine aminotransferase increased, Occurrences (all): 0
  Amino acid level decreased, Occurrences (all): 1
  Amino acid level increased, Occurrences (all): 0
  Ammonia increased, Occurrences (all): 1
  Anaemia, Occurrences (all): 1
  Angular cheilitis, Occurrences (all): 0
  Anion gap increased, Occurrences (all): 0
  Apnoea, Occurrences (all): 1
  Arthropod bite, Occurrences (all): 0
  Aspartate aminotransferase increased, Occurrences (all): 0
  Blood bicarbonate decreased, Occurrences (all): 0
  Blood urea decreased, Occurrences (all): 0
  Body height below normal, Occurrences (all): 0
  Candida infection, Occurrences (all): 0
  Carbon dioxide decreased, Occurrences (all): 1
  Cardiac disorders (Tachycardia), Occurrences (all): 0
  Catheter site rash, Occurrences (all): 0
  Conjunctivitis, Occurrences (all): 1
  Constipation, Occurrences (all): 2
  Cough, Occurrences (all): 2
  Croup infectious, Occurrences (all): 1
  Dacryostenosis congenital, Occurrences (all): 1
  Decreased appetite, Occurrences (all): 0
  Dehydration, Occurrences (all): 0
  Dermatitis diaper, Occurrences (all): 1
  Device occlusion, Occurrences (all): 0
  Diarrhoea, Occurrences (all): 1
  Drug withdrawal syndrome, Occurrences (all): 0
  Dysphagia, Occurrences (all): 0
  Ear and labyrinth disorders (Excessive cerumen production), Occurrences (all): 1
  Ear infection, Occurrences (all): 0
  Eczema, Occurrences (all): 1
  Eye discharge, Occurrences (all): 0
  Feeding disorder of infancy or early childhood, Occurrences (all): 0
  Flatulence, Occurrences (all): 0
  Gamma-glutamyltransferase increased, Occurrences (all): 0
  Gastroenteritis, Occurrences (all): 2
  Gastrointestinal viral infection, Occurrences (all): 0
  Gastrooesophageal reflux disease, Occurrences (all): 0
  Gross motor delay, Occurrences (all): 1
  Hepatic enzyme increased, Occurrences (all): 0
  Hepatobiliary disorders (Hepatic calcification), Occurrences (all): 0
  Hyperammonaemia, Occurrences (all): 0
  Hypophagia, Occurrences (all): 3
  Immune System Disorders (Seasonal allergy), Occurrences (all): 1
  Irritability, Occurrences (all): 0
  Lethargy, Occurrences (all): 0
  Leukocytosis, Occurrences (all): 0
  Lower respiratory tract infection, Occurrences (all): 0
  Lymphocytosis, Occurrences (all): 0
  Medical device site haemorrhage, Occurrences (all): 0
  Metabolic acidosis, Occurrences (all): 2
  Microcytic anaemia, Occurrences (all): 0
  Musculoskeletal and connective tissue Disorders (Torticollis), Occurrences (all): 0
  Nail ridging, Occurrences (all): 1
  Nasal congestion, Occurrences (all): 1
  Nasopharyngitis, Occurrences (all): 2
  Nephrolithiasis, Occurrences (all): 0
  Neutropenia, Occurrences (all): 0
  Ocular hyperaemia, Occurrences (all): 0
  Oral candidiasis, Occurrences (all): 0
  Oropharyngeal pain, Occurrences (all): 0
  Otitis media acute, Occurrences (all): 0
  Otitis media, Occurrences (all): 2
  Pharyngitis, Occurrences (all): 1
  Plagiocephaly, Occurrences (all): 0
  Platelet count increased, Occurrences (all): 0
  Pneumonia, Occurrences (all): 1
  Pneumothorax, Occurrences (all): 0
  Post-tussive vomiting, Occurrences (all): 0
  Protein deficiency, Occurrences (all): 0
  Pyrexia, Occurrences (all): 2
  Rash, Occurrences (all): 3
  Red man syndrome, Occurrences (all): 0
  Respiratory disorder, Occurrences (all): 1
  Rhinorrhoea, Occurrences (all): 1
  Seborrhoeic dermatitis, Occurrences (all): 1
  Sinusitis, Occurrences (all): 2
  Stoma site reaction, Occurrences (all): 1
  Tachypnoea, Occurrences (all): 0
  Teething, Occurrences (all): 1
  Thrombocytopenia, Occurrences (all): 0
  Thrombocytosis, Occurrences (all): 0
  Tibia fracture, Occurrences (all): 1
  Transaminases increased, Occurrences (all): 0
  Tremor, Occurrences (all): 0
  Upper respiratory tract infection, Occurrences (all): 6
  Urinary tract infection, Occurrences (all): 1
  Use of accessory respiratory muscles, Occurrences (all): 0
  Vascular disorders (Venous thrombosis limb), Occurrences (all): 2
  Vesicoureteric reflux, Occurrences (all): 1
  Viral infection, Occurrences (all): 1
  Vomiting, Occurrences (all): 5
  Weight decreased, Occurrences (all): 0
[3]
  Subjects with TEAE leading to study discontinuation: one
  Subjects with fatal outcome TEAE: no fatal outcome TEAEs
  Subjects with one or more TEAE: 16 subjects
  Subjects with one or more related TEAE: Ten
  Subjects with one or more serious TEAE: 11 subjects
  Subjects with serious related TEAEs: no subjects
[4]
  Subjects with TEAE leading to study discontinuation: one
  Subjects with fatal outcome TEAE: One
  Subjects with one or more TEAE: 10 subjects
  Subjects with one or more related TEAE: Four
  Subjects with one or more serious TEAE: 6 subjects
  Subjects with serious related TEAEs: no subjects
In vivo
  Respiratory syncytial virus infection, Occurrences (all): 0
  Respiratory syncytial virus infection, Subjects Affected/Exposed: 0/10 (0.00%)
  Rhinovirus infection, Occurrences (all): 0
  Rhinovirus infection, Subjects Affected/Exposed: 0/10 (0.00%)
  Serious AE Respiratory syncytial virus infection: Occurrences causally related to treatment/all: 0/0
  Serious AE Respiratory syncytial virus infection: Subjects Affected/Exposed: 0/10 (0.00%)
  Serious AE Rhinovirus infection: Occurrences causally related to treatment/all: 0/1
  Serious AE Rhinovirus infection: Subjects Affected/Exposed: 1/10 (10.00%)
